Source: article PMC7481482, “Development of Anthraquinone Derivatives as Ectonucleoside Triphosphate Diphosphohydrolase (NTPDase) Inhibitors With Selectivity for NTPDase2 and NTPDase3” (Frontiers in Pharmacology, 2020)

Tests used:
human NTPDase8 = target: T1, human NTPDase8 (Homo sapiens, UniProt Q5MY95); test: Malachite green assay, human NTPDase8; type: biochemical; settings: 2 μM compound; 100 µM ATP; COS-7 membrane preparation; read-out: % inhibition at 2 μM concentration, NTPDase8
T1 construct: expressed in transfected cells; host or cells: COS-7 cells (membrane preparation)
T1 sequence (Q5MY95 1-495): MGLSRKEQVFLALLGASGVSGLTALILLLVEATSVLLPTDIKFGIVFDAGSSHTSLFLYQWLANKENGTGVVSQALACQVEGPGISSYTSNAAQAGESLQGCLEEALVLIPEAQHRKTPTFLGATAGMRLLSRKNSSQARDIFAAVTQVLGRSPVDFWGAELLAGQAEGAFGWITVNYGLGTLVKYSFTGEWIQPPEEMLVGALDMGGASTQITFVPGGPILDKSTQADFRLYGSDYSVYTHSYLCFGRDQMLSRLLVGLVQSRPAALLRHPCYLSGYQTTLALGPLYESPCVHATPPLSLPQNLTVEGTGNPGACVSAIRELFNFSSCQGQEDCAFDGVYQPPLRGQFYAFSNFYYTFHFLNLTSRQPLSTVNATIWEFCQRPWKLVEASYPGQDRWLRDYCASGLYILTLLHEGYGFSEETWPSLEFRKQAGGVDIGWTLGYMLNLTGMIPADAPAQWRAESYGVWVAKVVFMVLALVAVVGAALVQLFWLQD
Summary of the method: (§1)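 COS-7 membranes expressing each NTPDase were preincubated with compound for 5 min at 37 °C, pH 7.4 HEPES buffer with 2 mM CaCl2/1 mM MgCl2. ATP was 50 µM for NTPDase1 and 100 µM for -2, -3, -8; reaction ran 15 min at 37 °C. Released phosphate read by malachite green at 600 nm; screen at 2 µM, IC50 over 0.03–30 µM in 2% DMSO.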

rat NTPDase3 = settings: rat enzyme; ref Baqi et al., 2009b; cited from earlier work
rat CD73 = system: rat CD73; design: method as in Baqi et al., 2010; settings: ref Baqi et al., 2010; cited from earlier work
rat NTPDase2 = settings: rat enzyme; ref Baqi et al., 2009b; cited from earlier work
human NTPDase3 = target: T2, human NTPDase3 (Homo sapiens, UniProt O75355); test: Malachite green assay, human NTPDase3; type: biochemical; settings: 2 μM compound; 100 µM ATP; COS-7 membrane preparation; read-out: % inhibition at 2 μM concentration, NTPDase3
T2 construct: expressed in transfected cells; host or cells: COS-7 cells (membrane preparation)
T2 sequence (O75355 1-529): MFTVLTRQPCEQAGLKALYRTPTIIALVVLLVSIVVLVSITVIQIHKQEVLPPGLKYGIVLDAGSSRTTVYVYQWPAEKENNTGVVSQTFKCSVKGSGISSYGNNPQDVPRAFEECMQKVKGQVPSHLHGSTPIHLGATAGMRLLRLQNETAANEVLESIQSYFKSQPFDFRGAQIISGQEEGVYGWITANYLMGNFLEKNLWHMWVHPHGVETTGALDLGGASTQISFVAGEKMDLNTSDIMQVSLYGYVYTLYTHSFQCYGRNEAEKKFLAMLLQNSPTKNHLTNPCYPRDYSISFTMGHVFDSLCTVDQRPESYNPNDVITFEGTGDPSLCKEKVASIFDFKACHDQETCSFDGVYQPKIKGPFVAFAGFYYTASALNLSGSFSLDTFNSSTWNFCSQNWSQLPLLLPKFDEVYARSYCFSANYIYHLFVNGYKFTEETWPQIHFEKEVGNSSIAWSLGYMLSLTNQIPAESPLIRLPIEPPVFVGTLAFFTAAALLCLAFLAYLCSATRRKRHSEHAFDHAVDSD
Summary of the method: as §1

Nc1c(S(=O)(=O)O)cc(Nc2cccc3ccccc23)c2c1C(=O)c1ccccc1C2=O [Compound 15]
inhibition at 2 µM (human NTPDase8): 9% | IC50 (rat NTPDase3): 1.5 µM | IC50 (rat CD73): 0.53 µM | IC50 (rat NTPDase2): > 100 µM | inhibition at 2 µM (human NTPDase3): -4%
